Experimental data reported in patent US5807535A, “Metal complexes of hydroxyaryl containing aminocarboxylic acid chelating agents” (Australian Nuclear Science & Technology Organisation, priority 1992, dated 1998).
Read-outs that look alike come from different tables or passages of the source.

Assay: Biodistribution of 99mTc complexes in rats
Type: in vivo, Australian Albino Wistar Rats
Conditions: rat, rats; for tissue uptake at 0.5 min: 30 sec; for tissue uptake at 0.05 h: 3 min
Experimental: A typical method of radiolabelling of the chelator was achieved by dissolving the chelator in a basic solution of saline. The pH was then adjusted to approx. 6 with HCl. Excess stannous chloride was added to the resultant solution followed by one equivalent volume of sodium ^99m TcO4 (10-50 mCi/ml). Final concentration of the chelator was approx. 1 mg/ml. The efficacy of labelling was determined by ITLC-SG. For each product only one main radiochemical species was observed. Each complex was diluted to 15 μCi/100 μl with saline. […] (See FIGS. 1A and 1B).
Selected data from biodistribution results of technetium-99m complexes of No. 1, No. 2 and No 4 in the liver, kidney and blood at 3 minutes is tabulated below.

[1] = blood, read-out: biodistribution blood
[2] = bone, read-out: biodistribution bone
[3] = brain, read-out: biodistribution brain
[4] = eyes, read-out: biodistribution eyes
[5] = heart, read-out: biodistribution heart
[6] = kidneys, read-out: biodistribution kidneys
[7] = liver, read-out: biodistribution liver
[8] = lungs, read-out: biodistribution lungs
[9] = muscle, read-out: biodistribution muscle
[10] = pancreas, read-out: biodistribution pancreas
[11] = skin, read-out: biodistribution skin
[12] = spleen, read-out: biodistribution spleen
[13] = tail, read-out: biodistribution tail
[14] = thymus, read-out: biodistribution thymus
[15] = thyroid, read-out: biodistribution thyroid

SMILES: O=C(O)CN(CCN(CC(=O)O)CC(=O)Nc1cc([N+](=O)[O-])ccc1O)CC(=O)Nc1cc([N+](=O)[O-])ccc1O [Compound 3]
- tissue uptake at 0.5 min [1]: 2.1 %ID/g
- tissue uptake at 1 min [1]: 1.83 %ID/g
- tissue uptake at 0.05 h [1]: 1.37 %ID/g
- tissue uptake at 5 min [1]: 1.17 %ID/g
- tissue uptake at 10 min [1]: 0.86 %ID/g
- tissue uptake at 0.5 min [2]: 0.3 %ID/g
- tissue uptake at 1 min [2]: 0.29 %ID/g
- tissue uptake at 0.05 h [2]: 0.3 %ID/g
- tissue uptake at 5 min [2]: 0.29 %ID/g
- tissue uptake at 10 min [2]: 0.22 %ID/g
- tissue uptake at 0.5 min [3]: 0.18 %ID/g
- tissue uptake at 1 min [3]: 0.14 %ID/g
- tissue uptake at 0.05 h [3]: 0.09 %ID/g
- tissue uptake at 5 min [3]: 0.08 %ID/g
- tissue uptake at 10 min [3]: 0.05 %ID/g
- tissue uptake at 0.5 min [4]: 0.2 %ID/g
- tissue uptake at 1 min [4]: 0.23 %ID/g
- tissue uptake at 0.05 h [4]: 0.23 %ID/g
- tissue uptake at 5 min [4]: 0.17 %ID/g
- tissue uptake at 10 min [4]: 0.18 %ID/g
- tissue uptake at 0.5 min [5]: 0.78 %ID/g
- tissue uptake at 1 min [5]: 0.65 %ID/g
- tissue uptake at 0.05 h [5]: 0.55 %ID/g
- tissue uptake at 5 min [5]: 0.45 %ID/g
- tissue uptake at 10 min [5]: 0.34 %ID/g
- tissue uptake at 0.5 min [6]: 3.92 %ID/g
- tissue uptake at 1 min [6]: 4.63 %ID/g
- tissue uptake at 0.05 h [6]: 4.27 %ID/g
- tissue uptake at 5 min [6]: 3 %ID/g
- tissue uptake at 10 min [6]: 2.1 %ID/g
- tissue uptake at 0.5 min [7]: 1.43 %ID/g
- tissue uptake at 1 min [7]: 1.61 %ID/g
- tissue uptake at 0.05 h [7]: 1.61 %ID/g
- tissue uptake at 5 min [7]: 1.24 %ID/g
- tissue uptake at 10 min [7]: 0.92 %ID/g
- tissue uptake at 0.5 min [8]: 1.24 %ID/g
- tissue uptake at 1 min [8]: 1.04 %ID/g
- tissue uptake at 0.05 h [8]: 0.87 %ID/g
- tissue uptake at 5 min [8]: 0.72 %ID/g
- tissue uptake at 10 min [8]: 0.57 %ID/g
- tissue uptake at 0.5 min [9]: 0.26 %ID/g
- tissue uptake at 1 min [9]: 0.24 %ID/g
- tissue uptake at 0.05 h [9]: 0.23 %ID/g
- tissue uptake at 5 min [9]: 0.21 %ID/g
- tissue uptake at 10 min [9]: 0.22 %ID/g
- tissue uptake at 0.5 min [10]: 0.47 %ID/g
- tissue uptake at 1 min [10]: 0.41 %ID/g
- tissue uptake at 0.05 h [10]: 0.38 %ID/g
- tissue uptake at 5 min [10]: 0.42 %ID/g
- tissue uptake at 10 min [10]: 0.21 %ID/g
- tissue uptake at 0.5 min [11]: 0.49 %ID/g
- tissue uptake at 1 min [11]: 0.43 %ID/g
- tissue uptake at 0.05 h [11]: 0.58 %ID/g
- tissue uptake at 5 min [11]: 0.64 %ID/g
- tissue uptake at 10 min [11]: 0.63 %ID/g
- tissue uptake at 0.5 min [12]: 0.49 %ID/g
- tissue uptake at 1 min [12]: 0.42 %ID/g
- tissue uptake at 0.05 h [12]: 0.29 %ID/g
- tissue uptake at 5 min [12]: 0.23 %ID/g
- tissue uptake at 10 min [12]: 0.17 %ID/g
- tissue uptake at 0.5 min [13]: 0.85 %ID/g
- tissue uptake at 1 min [13]: 2.43 %ID/g
- tissue uptake at 0.05 h [13]: 0.63 %ID/g
- tissue uptake at 5 min [13]: 0.84 %ID/g
- tissue uptake at 10 min [13]: 0.84 %ID/g
- tissue uptake at 0.5 min [14]: 0.38 %ID/g
- tissue uptake at 1 min [14]: 0.34 %ID/g
- tissue uptake at 0.05 h [14]: 0.32 %ID/g
- tissue uptake at 5 min [14]: 0.25 %ID/g
- tissue uptake at 10 min [14]: 0.2 %ID/g
- tissue uptake at 0.5 min [15]: 1.11 %ID/g
- tissue uptake at 1 min [15]: 1.14 %ID/g
- tissue uptake at 0.05 h [15]: 0.92 %ID/g
- tissue uptake at 5 min [15]: 0.7 %ID/g
- tissue uptake at 10 min [15]: 0.63 %ID/g
